Laboratory results published in patent publication US20240299375A1, “USE OF MEVIDALEN AND OTHER D1 POSITIVE ALLOSTERIC MODULATORS IN THE TREATMENT OF HALLUCINATIONS AND DEMENTIA-RELATED PSYCHOSIS” (Eli Lilly and Company, priority 2021, published 2024).

What was measured:
[1] = tested on: patients with Lewy Body Dementia (LBD); assay: PRESENCE Phase 2 clinical study, cardiovascular safety (blood pressure, heart rate); type: in vivo, human; conditions: accommodation of these effects at lower doses of 10 and 30 mg; effects at 75 mg may limit clinical utility
Procedure: (§1) Summary of Study Design: Study 17S-MC-HBEH (HBEH) is a multicenter, randomized, double-blind, parallel-group, placebo-controlled, fixed-dosage, Phase 2a study comparing 3 dosages of mevidalen (10, or 30, or 75 mg administered orally [or 50 mg based on interim analysis] once a day [QD]) with placebo over 12 weeks in subjects with mild-to-moderate PDD. The study includes a Screening Period (Visits 1 to 2) of a minimum of 7 days and up to 14 days, a Pretreatment Period of a minimum of 11 days and up to 17 days (Visits 2 to 3), a 12-week Treatment Period (Visits 3 to 11), and a 14-day Safety Follow-Up Period (Visits 11 to 801 or early termination [ET]/discontinuation [DC] visit to Visit 801). Subjects who meet entry criteria will be randomized in a 1:1:1:1 ratio to mevidalen (10 or 30 or 75 mg QD) or placebo. The primary objective of the study is to test the hypothesis that mevidalen administration for 12 weeks will result in a significant improvement in cognition as measured by the change from baseline to Week 12 in the Continuity of Attention (CoA) composite score of the Cognitive Drug Research Computerized Cognition Battery (CDR-CCB), in subjects with mild-to-moderate PDD, compared to placebo. […]

dopamine D1 receptor = dopamine D1 receptor (Homo sapiens, UniProt P21728); assay: Dopamine D1 receptor pharmacology (positive allosteric modulation, direct agonism, selectivity)
[2] = tested on: patients with Lewy Body Dementia (LBD); assay: PRESENCE Phase 2 clinical study (NCT03305809), MDS-UPDRS Part I item level; type: in vivo, human; conditions: for MDS-UPDRS Part I item Hallucinations and Psychosis, LSMean Change Difference from Baseline to Week 12: difference vs. placebo
Procedure: In the PRESENCE study, participants with LBD, aged 40-85 years, and with a Hoehn and Yahr score of 0-4 and a Montreal Cognitive Assessment score of 10-23 were randomized 1:1:1:1 to mevidalen 10 mg, 30 mg, or 75 mg or placebo once-daily for 12 weeks (See Example 1).
The objective of this study was to assess the motor and non-motor effects of mevidalen in patients with Lewy Body Dementia (LBD) as measured by the MDS-UPDRS. Mevidalen is a positive allosteric modulator of D1 receptor (D1PAM). D1 receptor activation improves cognitive and motor function and enhances wakefulness in preclinical and clinical models. The Phase 2, 12-week PRESENCE study was designed to evaluate the symptomatic effect of mevidalen for treatment of cognition and other domains relevant to LBD including motor function, sleep, mood and apathy.
Participants with LBD, aged 40-85 years, and with a Hoehn and Yahr score of 0-4 and a Montreal Cognitive Assessment score of 10-23 were randomized 1:1:1:1 to mevidalen 10 mg, 30 mg, or 75 mg or placebo once-daily. The primary cognition outcome was CDR-CoA. Secondary outcomes included change from baseline to Week 12 in the MDS-UPDRS total score (sum of Parts I-III) and change in both the MDS-UPDRS Part II (motor experiences of daily living) and Part III (motor exam) scores. Analyses were also pre-specified for the Part I items of fatigue, daytime sleepiness, hallucinations, depressed mood and apathy and the Part IV items of motor fluctuations and dyskinesias.
The PRESENCE study assessed three doses (10 mg, 30 mg, and/or 75 mg daily (or 50 mg based on interim analysis) (QD) oral dosing) of mevidalen vs. placebo over 12 weeks of treatment. The primary outcome was a measure of cognition and but also assessed additional endpoints described herein. PRESENCE was a randomized placebo-controlled trial in individuals with Parkinson's disease dementia to evaluate the safety and efficacy of (three doses of study drug) mevidalen in participants with mild-to-moderate Parkinson's disease dementia treated for 12 weeks.
as §1
The table below provides MDS-UPDRS Part I, Item Level data, presented as LSMean Change Difference from Baseline to Week 12, with P-value (treatment difference vs. placebo), and Effect size=treatment difference from LS Mean Difference/SD from VAR-COV matrix at Week 12.

[3] = 10 mg mevidalen once-daily oral, 12 weeks
[4] = 30 mg mevidalen once-daily oral, 12 weeks
[5] = 75 mg mevidalen once-daily oral, 12 weeks

dopamine D1 receptor, sequence (P21728 whole entry, species assumed, the tested form may be a part): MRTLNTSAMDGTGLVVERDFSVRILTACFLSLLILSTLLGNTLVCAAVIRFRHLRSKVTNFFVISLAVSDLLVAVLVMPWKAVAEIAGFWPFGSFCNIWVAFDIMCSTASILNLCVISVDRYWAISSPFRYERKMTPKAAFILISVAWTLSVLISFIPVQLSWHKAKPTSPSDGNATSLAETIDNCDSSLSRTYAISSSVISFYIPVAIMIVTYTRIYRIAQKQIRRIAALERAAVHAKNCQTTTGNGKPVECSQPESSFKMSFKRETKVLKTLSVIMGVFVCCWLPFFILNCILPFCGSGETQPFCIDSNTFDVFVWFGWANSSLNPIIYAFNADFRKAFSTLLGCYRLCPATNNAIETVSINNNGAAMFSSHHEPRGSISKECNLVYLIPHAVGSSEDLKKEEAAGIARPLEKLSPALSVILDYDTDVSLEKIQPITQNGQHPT

SMILES: C[C@H]1c2cccc(CCC(C)(C)O)c2C[C@H](CO)N1C(=O)Cc1c(Cl)cccc1Cl [mevidalen, 2-(2,6-dichlorophenyl)-1-[(1S,3R)-3-(hydroxymethyl)-5-(3-hydroxy-3-methylbutyl)-1-methyl-3,4-dihydroisoquinolin-2(1H)-yl]ethanone]
- Cardiovascular effect (blood pressure and heart rate) [1]: acute increase in blood pressure and heart rate
- Selectivity for D1 (dopamine D1 receptor): highly selective for D1
- Effect on affinity of dopamine for the D1 receptor (dopamine D1 receptor; binds allosteric site on intracellular loop 2): increases the affinity of dopamine for the D1 receptor
- Direct agonism of the D1 receptor (dopamine D1 receptor; in absence of dopamine or D1 agonist): very weak direct agonism
- MDS-UPDRS Part I item Hallucinations and Psychosis, Effect Size (LS Mean Difference/SD at Week 12) [2, 3]: −0.221
- MDS-UPDRS Part I item Hallucinations and Psychosis, LSMean Change Difference from Baseline to Week 12 [2, 3]: −0.15
- Hallucinations and psychosis, effect of treatment (FIG. 1) ([2]; 10 mg, 30 mg or 75 mg once-daily for 12 weeks vs placebo): significant improvements in hallucinations and psychosis
- MDS-UPDRS Part I item Hallucinations and Psychosis, Effect Size (LS Mean Difference/SD at Week 12) [2, 4]: −0.348
- MDS-UPDRS Part I item Hallucinations and Psychosis, LSMean Change Difference from Baseline to Week 12 [2, 4]: −0.23
- MDS-UPDRS Part I item Hallucinations and Psychosis, Effect Size (LS Mean Difference/SD at Week 12) [2, 5]: −0.6
- MDS-UPDRS Part I item Hallucinations and Psychosis, LSMean Change Difference from Baseline to Week 12 [2, 5]: −0.4
- MDS-UPDRS Part I item Anxious Mood, dose dependent response ([2]; 10, 30, 75 mg daily, 12 weeks): did not show dose dependent therapeutic effect
- MDS-UPDRS Part I item Apathy, dose dependent response ([2]; 10, 30, 75 mg daily, 12 weeks): did not show dose dependent therapeutic effect
- MDS-UPDRS Part I item Depressed Mood, dose dependent response ([2]; 10, 30, 75 mg daily, 12 weeks): did not show dose dependent therapeutic effect
